The structures appear in SMILES notation.

PFKFB3, sequence (Q16875 whole entry): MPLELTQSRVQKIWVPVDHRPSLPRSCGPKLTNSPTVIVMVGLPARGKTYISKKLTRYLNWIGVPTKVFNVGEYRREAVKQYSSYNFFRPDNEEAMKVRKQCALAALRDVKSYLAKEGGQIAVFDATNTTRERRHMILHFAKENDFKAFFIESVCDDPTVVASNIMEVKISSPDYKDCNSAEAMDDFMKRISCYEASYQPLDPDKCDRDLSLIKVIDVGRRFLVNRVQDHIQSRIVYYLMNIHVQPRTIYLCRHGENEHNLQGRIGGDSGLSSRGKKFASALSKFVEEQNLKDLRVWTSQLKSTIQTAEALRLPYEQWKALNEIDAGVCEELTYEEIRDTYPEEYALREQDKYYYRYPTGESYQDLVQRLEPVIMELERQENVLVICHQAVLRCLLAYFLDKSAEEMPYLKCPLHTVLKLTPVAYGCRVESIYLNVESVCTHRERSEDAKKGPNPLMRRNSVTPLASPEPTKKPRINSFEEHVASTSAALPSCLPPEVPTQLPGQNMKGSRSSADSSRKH

The first assay concerns the target PFKFB3 (Homo sapiens (Human), UniProt Q16875). The assay can be described thus: PFKFB3 kinase activity, Method B (ADP-Glo Kinase Assay). It counts as biochemical.
Settings: not given
The text has this:
(§1) The PFKFB3 (placenta form) and PFKFB4 were produced and purified to homogeneity from E. coli at Biovitrum and at Sprint Bioscience. All other reagents were purchased from commercial sources. Two independent methods have been used for determination of the kinase activity of PFKFB3 (Method A and Method B). Method B has been used for determination of the kinase activity of PFKFB4.
(§2) Method B: The kinase activity of the bi-functional enzyme is readily quantified based on the production of ADP and F-2,6-P2 from ATP and F6P. The ADP is detected with a kit, ADP-Glo™ Kinase Assay^(a-e), from Promega. The assay is a luminescent ADP detection assay that measures kinase activity by quantifying the amount of ADP produced during the kinase reaction. The assay is performed in two steps; first, after the kinase reaction, an equal volume of ADP-Glo™ Reagent is added to terminate the kinase reaction and deplete the remaining ATP. Second, the Kinase Detection Reagent is added to simultaneously convert ADP to ATP and allow the newly synthesized ATP to be measured using a luciferase/luciferine reaction. The light generated is measured using a luminescence counter (1450 MicroBeta TriLux).
(§3) The assay was performed in white 384-well microtiter plates (OptiPlate, 6007299, PerkinElmer) by consecutive additions of 0.1 μL of a test compound solution (serial diluted in DMSO from compound DMSO stock solution and dispensed by acoustic dispensing from UV-star 384-well plate 7360153, VWR), 5 μL of enzyme solution and 5 μL of a substrate (fructose-6-phosphate (F6P) and adenosine-5′-triphosphate (ATP)) containing solution. […] Four reference dose response curves, one of them being the QC compound, were included in row O1-2, P1-2, and serial diluted as the test compounds. The final concentrations of all reagents in a total assay volume of 10.1 μL per well were: • 50 mM Tris-HCl at pH 8.0 • 10 mM MgCl2 • 5 mM Na2HPO4 at pH 8.0 • 81.48 nM PFKFB3 or 145 nM PFKFB4 • 8 μM ATP • 100 μM F6P (acid treated and then neutralized to remove any contaminating F-2,6-P2; see Van Schaftingen, 1984) • 0.005% Tween-20 • 1 mM dithiothreitol (DTT) • A test compound at various concentrations or controls (final DMSO concentration 0.99%)
(§4) Enzyme, compounds and controls were pre-incubated at room temperature for 15 min before the addition of substrate solution. The enzymatic reaction was allowed to proceed for 20 min (PFKFB3) or 40 min (PFKFB4) at room temperature. The reaction was terminated by the addition of 10 μL of ADP-Glo™ Reagent to all wells and the plate was incubated for 40 min at room temperature. After addition of 20 μL Kinase Detection Reagent to all wells the plate was incubated for 30 min at room temperature, followed by measurement in 1450 MicroBeta TriLux. All plates were centrifuged after each addition (room temperature, short spin, 500 RPM, Megafuge 1.0 Heraeus Instruments).
(§5) The inhibitory potency or IC50 values of test compounds on the kinase activity of PFKFB3 or PFKFB4 were calculated using a four-parameter model (model 205) in XLfit (IDBS ActivityBase XE Runner).
(In general: In ADP-Glo the light output rises with the ADP produced.)
As a reminder, the IC50 is the midpoint of a concentration-inhibition curve. `O=S(=O)(Nc1cccc(-c2nnn[nH]2)c1)c1ccc(-c2cccc(C(F)(F)F)c2)s1` [Example 99, N-[3-(1H-Tetrazol-5-yl)phenyl]-5-[3-(trifluoromethyl)phenyl]thiophene-2-sulfonamide]: the 50% inhibitory concentration (IC50) amounted to 1420 nM.

For the compound `O=S(=O)(Nc1cccc(-c2nnn[nH]2)c1)c1ccc(Cl)c2nonc12` [Example 73, 7-Chloro-N-[3-(1H-tetrazol-5-yl)phenyl]-2,1,3-benzoxadiazole-4-sulfonamide], the half-inhibitory concentration (IC50) was 570 nM.

On to `O=C(O)c1cccc(NS(=O)(=O)c2cccc(-c3ccccc3)c2)c1` [Example 80, 3-[(Biphenyl-3-ylsulfonyl)amino]benzoic acid], for which the half-maximal inhibitory concentration (IC50) was determined as 3100 nM.

For the compound `CSc1nccc(-c2ccc(S(=O)(=O)Nc3cccc(C(=O)O)c3)s2)n1` [Example 61, 3-[[5-(2-Methylsulfanylpyrimidin-4-yl)-2-thienyl]sulfonylamino]benzoic acid], the half-inhibitory concentration (IC50) was 2240 nM.

Consider `O=S(=O)(Nc1cccc(-c2nnn[nH]2)c1)c1ccc(-c2ccc(Cl)c(Cl)c2)cc1` [Example 86, 3′,4′-Dichloro-N-[3-(1H-tetrazol-5-yl)phenyl]biphenyl-4-sulfonamide], for which the IC50 stood at 2800 nM.

On to `Cc1c(S(=O)(=O)Nc2cccc(-c3nnn[nH]3)c2)sc2ccccc12` [Example 39, 3-Methyl-N-[3-(1H-tetrazol-5-yl)phenyl]-1-benzothiophene-2-sulfonamide], for which the IC50 was 280 nM.

As for `Cc1c(S(=O)(=O)Nc2ccc(O)c(C(=O)O)c2)sc2ccc(Cl)cc12` [Example 138, 5-{[(5-Chloro-3-methyl-1-benzothiophen-2-yl)sulfonyl]amino}-2-hydroxybenzoic acid], the IC50 was 9030 nM.

Compound `O=S(=O)(Nc1cccc(-c2nnn[nH]2)c1)c1ccc(-c2cc(F)cc(F)c2)s1` [Example 23, 5-(3,5-Difluorophenyl)-N-[3-(1H-tetrazol-5-yl)phenyl]thiophene-2-sulfonamide] gave an IC50 of 620 nM.

For the compound `Cc1ccc2sc(S(=O)(=O)Nc3cccc(-c4nnn[nH]4)c3)c(C)c2c1` [Example 33, 3,5-Dimethyl-N-[3-(1H-tetrazol-5-yl)phenyl]-1-benzothiophene-2-sulfonamide], the IC50 is 130 nM.

In turn, `O=S(=O)(Nc1cccc(-c2nnn[nH]2)c1)c1cc(Cl)c(Cl)cc1Cl` [Example 71, 2,4,5-Trichloro-N-[3-(1H-tetrazol-5-yl)phenyl]benzenesulfonamide] showed a concentration for half-maximal inhibition (IC50) of 2390 nM.

`O=C(O)c1cccc(NS(=O)(=O)c2cc(-c3ccccc3O)c(Cl)s2)c1O` [Example 137, 3-({[5-Chloro-4-(2-hydroxyphenyl)thiophen-2-yl]sulfonyl}amino)-2-hydroxybenzoic acid] had an IC50 of 5180 nM.

The compound `O=S(=O)(Nc1cccc(-c2nnn[nH]2)c1)c1ccc(-c2ccccc2)s1` [Example 60, 5-Phenyl-N-[3-(1H-tetrazol-5-yl)phenyl]thiophene-2-sulfonamide] registered a concentration for half-maximal inhibition (IC50) of 1300 nM.

The target in the next assay is PFKFB4 (Homo sapiens (Human), UniProt Q16877). The assay can be described thus: PFKFB4 kinase activity, Method B (ADP-Glo Kinase Assay). It counts as biochemical.
PFKFB4, sequence (Q16877 whole entry): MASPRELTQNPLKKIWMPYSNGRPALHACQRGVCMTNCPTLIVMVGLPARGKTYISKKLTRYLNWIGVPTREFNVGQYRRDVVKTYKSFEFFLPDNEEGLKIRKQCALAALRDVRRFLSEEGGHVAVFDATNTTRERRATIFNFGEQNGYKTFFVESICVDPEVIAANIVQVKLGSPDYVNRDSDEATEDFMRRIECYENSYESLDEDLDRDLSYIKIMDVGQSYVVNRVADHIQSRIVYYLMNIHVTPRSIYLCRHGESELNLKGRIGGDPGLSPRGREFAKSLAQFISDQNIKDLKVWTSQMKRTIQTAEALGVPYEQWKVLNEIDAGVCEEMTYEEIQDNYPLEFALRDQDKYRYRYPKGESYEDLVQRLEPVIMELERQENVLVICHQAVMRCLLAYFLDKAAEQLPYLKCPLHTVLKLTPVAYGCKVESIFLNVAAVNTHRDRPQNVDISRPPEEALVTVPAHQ
Settings: not given
Description: as §1, §2, §3, §4, §5
Compound `Cc1ccc(-c2ccc(S(=O)(=O)Nc3cccc(-c4nnn[nH]4)c3)s2)cc1` [Example 27, 5-(4-Methylphenyl)-N-[3-(1H-tetrazol-5-yl)phenyl]thiophene-2-sulfonamide] had an IC50 of 480 nM.

`COc1ccccc1-c1ccc(S(=O)(=O)Nc2cccc(-c3nnn[nH]3)c2)s1` [Example 24, 5-(2-Methoxyphenyl)-N-[3-(1H-tetrazol-5-yl)phenyl]thiophene-2-sulfonamide]: inhibition was half-maximal at 660 nM (IC50).

For another assay, the system named is PANC-1 cells. The assay can be described thus: Quantification of F-2,6-P2 in PANC-1 cells. In kind it is cell-based. To be noted: Homo sapiens, PANC-1; read-out: IC50 based on quantification of F-2,6-P2. The source says:
(§6) The relative kinase (formation) and phosphatase (degradation) activities of the bi-functional enzymes PFKFB3 and PFKFB4 control the intracellular levels of the regulator F-2,6-P2, which acts as an allosteric activator of glycolysis. The levels of F-2,6-P2 have been determined in three different cancer cell lines (MCF-7, PANC-1 and NUGC-3) using the van Shaftingen assay. The assay protocols described under “Methods for measurement of enzymatic activity of PFKFB3 and PFKFB4, Method A” have been adapted for the measurement of the inhibitory effect of compounds on the kinase activity of the various isoforms of the bifunctional enzyme (endogenously expressed) in the different cell lines. The modifications are described in the protocol below. All reagents were purchased from commercial sources or prepared inhouse.
Cell Line B (PANC-1, Human Pancreatic Carcinoma Cell Line)
• Cells: PANC-1 (ATCC-CRL-1469). Lot. no: 58564651. • Growth medium: Dulbecco's Modified Eagle's Medium, DMEM, ATCC-30-2002 10% FBS, Invitrogen, 10106-169
Cells were seeded at a concentration of 250 000 cells/mL in 100 μL growth medium (25 000 cells/well)
Starvation medium: DMEM/F12 without phenol red and glucose free, SVA, 991373 0.25% FBS, Invitrogen, 10106-169
Induction medium: DMEM/F12 without phenol red and glucose free, SVA, 991373 0.25% FBS, Invitrogen, 10106-169 (same as starvation medium)
Cells were seeded in 96-well Corning Costar tissue culture plates (CLS3595, Sigma-Aldrich) using the concentrations specified above for the three different cell lines A-C and incubated over night at 37° C. and 5% CO2. Row A was left empty. Next day the growth medium was discarded and replaced with 100 μL starvation medium. The plates were incubated for 18 h at 37° C. and 5% CO2. After 18 h of starvation the cells were induced with 100 μL compound or control solutions. Compounds were either tested in two concentrations (50 μM and 10 μM) or in dose response curves starting from 50 μM and the final DMSO concentration in assay plates was 0.5%. Also a dose response curve of a reference inhibitor was included in row H on each plate. All compounds were tested in duplicate plates. Compounds (in 96 well CLS 3365, Sigma-Aldrich) were serial diluted in DMSO from 10 mM compound DMSO stock solutions with Janus (automated liquid handling workstation from PerkinElmer). 5 μL were transferred to a Greiner deep well plate (736-0155, VWR) with 495 μL starvation medium. The final start concentration of compounds in the dilution plate was 100 μM, 1% DMSO. For compounds tested as single points, 10 mM compound solutions were diluted five fold in DMSO to 2 mM, followed by the transfer of 5 μL to separate dilution plates with 495 μL starvation medium. The final concentration of compounds in these dilution plates were 100 or 20 μM, respectively, and final concentration of DMSO was 1%. The plates were incubated at 37° C. and 5% CO2 for 1 h, followed by the addition of 10 μL 20 mM D-glucose in starvation medium. Controls, with and without 1 mM glucose, were included in row B. The final assay volume was 210 μL per well. After 2 h of incubation at 37° C. and 5% CO2, supernatants were discarded and the cells were lysed by the addition of 25 μL 250 mM NaOH. The plates were incubated at 37° C. and 5% CO2 for 5 min followed by an addition of 75 μL MilliQ dH2O. The supernatants were further diluted with 210 μL MilliQ dH2O to a final concentration of 20 mM NaOH. 200 μL were transferred to NUNC 96-well plates (7322661, VWR) and the plates were sealed and stored at −20° C. until analysis.
The amount of F-2,6-P2 was quantified based on the coupled enzymatic reaction described by Van Schaftingen. If necessary the samples were further diluted in 20 mM NaOH before quantification. Plates stored at −20° C. were thawed and the F-2,6-P2 quantification was initiated by transferring 40 μL from each well of the NUNC plate to the corresponding position in a trans-parent 96-well SpectraPlate-MB (6005649, PerkinElmer). […]
With `Cc1ccc(-c2ccc(S(=O)(=O)Nc3cccc(-c4nnn[nH]4)c3)s2)cc1` [Example 27, 5-(4-Methylphenyl)-N-[3-(1H-tetrazol-5-yl)phenyl]thiophene-2-sulfonamide], the half-inhibitory concentration (IC50) was found to be 13800 nM.

Take `COc1ccccc1-c1ccc(S(=O)(=O)Nc2cccc(-c3nnn[nH]3)c2)s1` [Example 24, 5-(2-Methoxyphenyl)-N-[3-(1H-tetrazol-5-yl)phenyl]thiophene-2-sulfonamide]: the IC50 came to 11000 nM.

A further assay relates to MCF-7 cells. Description: Quantification of F-2,6-P2 in MCF-7 cells. It counts as cell-based. Particulars: Homo sapiens, MCF7, cells seeded in the starvation medium containing 25 mM glucose, 25 000 cells/well, read-out: IC50 based on quantification of F-2,6-P2.
Description: as §6
Cell Line A (MCF-7, Human Breast Adenocarcinoma Cell Line)
• Cells: MCF-7(ATCC-HBT22). Lot. no: 58469417. • Growth Medium: • Eagle's Minimum Essential Medium (EMEM), Sigma-Aldrich #M5650, 500 ml • 10% FBS, Invitrogen, 10106-169 • 5 mL 200 mM L-glutamine, Invitrogen 25030024 • 5 mL 100 mM Sodium Pyruvate, Invitrogen 11360039 • 0.5 mL 10 mg/ml Bovine Insulin, Sigma-Aldrich 10516 […]
The amount of F-2,6-P2 was quantified based on the coupled enzymatic reaction described by Van Schaftingen. If necessary the samples were further diluted in 20 mM NaOH before quantification. […]
For `COC(=O)c1cc(NS(=O)(=O)c2sc3ccc(Cl)cc3c2C)ccc1O` [Example 140, Methyl 5-{[(5-chloro-3-methyl-1-benzothiophen-2-yl)sulfonyl]amino}-2-hydroxybenzoate], the IC50 stood at 1200 nM.

Still in this assay, the particulars now being: Homo sapiens, MCF7, read-out: IC50 based on quantification of F-2,6-P2.
In the case of `Cc1c(S(=O)(=O)Nc2cccc(-c3cnco3)c2)sc2ccc(Cl)cc12` [Example 141, 5-Chloro-3-methyl-N-[3-(1,3-oxazol-5-yl)phenyl]-1-benzothiophene-2-sulfonamide], the 50% inhibitory concentration (IC50) is 3000 nM.

The values above are taken from patent US9233946B2, “Sulfonamide compounds” (KANCERA AB, priority 2010, dated 2016).
